Data reported in publication PMC5047629, “Synthesis, Pharmacological Profile and Docking Studies of New Sulfonamides Designed as Phosphodiesterase-4 Inhibitors” (PLoS ONE, 2016).

Columns and labels:
PDE4A = target: T1, PDE4A (Homo sapiens, UniProt P27815); assay: PDE4A inhibition, IMAP fluorescence polarization protocol; format: biochemical; details: 1 μM; mean ± SEM, 3 experiments
T1 construct: purchased MDS PHARMA
Method: (§1) The enzymatic reactions were carried at room temperature in a 96-well black plate by co-incubating 25 μL of 200 nM FAM-cAMP (R7513), 5 μL of putative inhibitory compounds and 20 μL of the PDE4 isoform dissolved in assay buffer (R7364) for 1 h. All enzymes were obtained from human recombinant sources (MDS PHARMA), whereas the other reagents were purchased from Molecular Devices. […] PDE4 inhibitors were dissolved in dimethyl sulfoxide (DMSO) at a final concentration of 0.1%.
(§2) The inhibitory activities of the new sulfonamide derivatives were evaluated for their selectivity against the four isoforms of human PDE4, i.e. PDE4A, PDE4B, PDE4C, and PDE4D, using an IMAP-FP protocol.

PDE4B = target: T2, PDE4B (Homo sapiens, UniProt Q07343); assay: PDE4B inhibition, IMAP fluorescence polarization protocol; format: biochemical; details: 1 μM, mean ± SEM, 3 experiments; for inhibition at 1 µM: read-out: PDE4B1 inhibition
T2 construct: purchased MDS PHARMA
Method: as §1, §2

PDE4C = target: T3, PDE4C (Homo sapiens, UniProt Q08493); assay: PDE4C inhibition, IMAP fluorescence polarization protocol; format: biochemical; details: 1 μM; mean ± SEM, 3 experiments
T3 construct: purchased MDS PHARMA
Method: as §1, §2

PDE4D = target: T4, PDE4D (Homo sapiens, UniProt Q08499); assay: PDE4D inhibition, IMAP fluorescence polarization protocol; format: biochemical; details: 1 μM, mean ± SEM, 3 experiments; for inhibition at 1 µM: read-out: PDE4D3 inhibition
T4 construct: purchased MDS PHARMA
Method: as §1, §2

A/J mice [1] = assay: Murine model of asthma with 4 weekly OVA provocations (days 14, 21, 28, 35), interventional treatment; format: in vivo; details: LASSBio-448 100 mg/Kg oral
Method: Sensitization was performed by means of a subcutaneous injection of 50 μg ovalbumin (OVA) (grade V; Sigma-Aldrich, St. Louis, MO) adsorbed to 5 mg of Al(OH)3 in 0.2 mL of sterile 0.9% NaCl (saline) at days 0 and 14. Intranasal OVA provocations (25 μg /25 μL saline) were performed at 19 and 20 days post-sensitization under isofluorane volatile anaesthesia (Cristalia, São Paulo, Brazil). Alternatively, sensitization as described above were done at days 0 and 7, while the OVA provocations were carried out at days 14, 21, 28 and 35 [39]. Negative control groups were represented by sensitized mice in which allergen was replaced by saline as a challenge. Treatments were done orally 1 h before provocations. Test compounds were dissolved in saline containing 0.2% Tween 80. All solutions were freshly prepared immediately before use. Analyses were performed 24 h after the last provocation.
Airflow and transpulmonary pressure were recorded with a Buxco pulmonary mechanics processing system (Buxco Electronics, Sharon, CT), which calculated resistance (cmH2O.s/ml) and dynamic lung compliance (mL/cmH2O) in each breath cycle. Elastance was calculated as the inverse of compliance values. Mice were anesthetized with nembutal (60 mg/kg), and the neuromuscular activity was blocked with bromide pancuronium (1 mg/kg). Animals were allowed to stabilize for 5 min and increasing concentrations of methacholine (3–27 mg/mL) were aerosolized for 5 min each. Baseline pulmonary parameters were assessed with aerosolized phosphate buffer solution (PBS).
The EPO activity present in lung tissue was determined with a colorimetric assay as described by Strath et al. (1985), with minor modifications. Briefly, the lungs were cannulated and perfused with saline/EDTA (20 mM). Then, lung samples were homogenized in buffer solution containing 0.5% HBSS (Hank´s balanced solution, pH 7.4; Sigma Chemical Co.) using a tissue homogenizer (T25 ultra-Tirrax). Samples were centrifuged at 1300 xg for 10 min at 4°C. Red blood cells were removed by hypotonic and hypertonic lysis. The suspended cells were then centrifuged again at 1300 xg for 10 min at 4°C. The pellet was then suspended in a solution of HBSS containing 0.5% of HTAB (hexadecyltrimethylamonium bromide; Sigma Chemical Co.) (pH 7.4). This suspension was subjected to heat shock for lysing the cells in three cycles freeze/thawed. At the end, the supernatants were collected, centrifuged at 12000 rpm for 15 min at 4°C and assayed spectrophotometrically for EPO determination. Fifty μl of the samples were placed, and then 50 μl of the substrate (1.5 mM o-phenylenediamine and 6.6 mM hydrogen peroxide in 0.05 mM Tris-HCl buffer, pH 8.0) was added and, after a 30 min incubation at room temperature, 50 μl of H2SO4 (4M) was added to stop the reaction. The optical density reading was performed on the SpectraMax M5 spectrophotometer (Molecular Devices) at a wavelength of 492 nm.
Right lungs tissue samples from saline- and OVA-exposed mice were homogenized in PBS containing 0.05% Triton X-100 and a protease inhibitor cocktail (Complete®, Hoffmann-La Roche Ltd, Basel, Switzerland). After centrifugation at 13000xg for 10 min and 4°C, the levels of IL-13, IL-5, IL-4 and eotaxin-2 were quantified in the supernatant, using commercially available ELISA kits (DuoSet; R&D Systems, Minneapolis, MN, USA). The results were expressed as picograms of cytokine per right lung.

A/J mice [2] = assay: Duration of xylazine/ketamine anesthesia (behavioral correlate of emesis); format: in vivo
Method: This assessment was carried out as previously reported. […] The animals were placed in dorsal position and their spontaneous return to the prone position was used as an endpoint to determine anesthesia duration.

[3] = rolipram 10 mg/Kg oral, right lung, 24 h after last challenge, vs vehicle, Fig 8

T2 sequence (Q07343 whole entry): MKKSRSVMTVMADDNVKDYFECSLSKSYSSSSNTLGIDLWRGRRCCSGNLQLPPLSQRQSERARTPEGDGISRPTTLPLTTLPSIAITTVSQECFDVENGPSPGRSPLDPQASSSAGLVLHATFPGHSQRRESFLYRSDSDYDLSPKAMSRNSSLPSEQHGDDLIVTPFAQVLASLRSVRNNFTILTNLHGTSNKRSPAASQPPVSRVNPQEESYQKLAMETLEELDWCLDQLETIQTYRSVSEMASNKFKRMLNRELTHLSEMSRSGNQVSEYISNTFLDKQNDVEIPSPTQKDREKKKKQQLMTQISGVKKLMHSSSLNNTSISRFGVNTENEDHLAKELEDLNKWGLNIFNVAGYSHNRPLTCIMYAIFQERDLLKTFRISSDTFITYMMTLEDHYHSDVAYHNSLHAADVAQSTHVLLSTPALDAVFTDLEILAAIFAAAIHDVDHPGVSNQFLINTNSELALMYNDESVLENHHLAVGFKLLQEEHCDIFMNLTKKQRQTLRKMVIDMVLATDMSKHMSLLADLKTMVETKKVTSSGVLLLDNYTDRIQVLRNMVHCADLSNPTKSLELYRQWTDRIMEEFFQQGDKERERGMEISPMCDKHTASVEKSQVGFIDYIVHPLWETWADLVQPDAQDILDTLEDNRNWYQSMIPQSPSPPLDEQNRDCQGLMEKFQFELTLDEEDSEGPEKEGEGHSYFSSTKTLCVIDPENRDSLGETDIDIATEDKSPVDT
T1 sequence (P27815 1-647 isoform P27815-4): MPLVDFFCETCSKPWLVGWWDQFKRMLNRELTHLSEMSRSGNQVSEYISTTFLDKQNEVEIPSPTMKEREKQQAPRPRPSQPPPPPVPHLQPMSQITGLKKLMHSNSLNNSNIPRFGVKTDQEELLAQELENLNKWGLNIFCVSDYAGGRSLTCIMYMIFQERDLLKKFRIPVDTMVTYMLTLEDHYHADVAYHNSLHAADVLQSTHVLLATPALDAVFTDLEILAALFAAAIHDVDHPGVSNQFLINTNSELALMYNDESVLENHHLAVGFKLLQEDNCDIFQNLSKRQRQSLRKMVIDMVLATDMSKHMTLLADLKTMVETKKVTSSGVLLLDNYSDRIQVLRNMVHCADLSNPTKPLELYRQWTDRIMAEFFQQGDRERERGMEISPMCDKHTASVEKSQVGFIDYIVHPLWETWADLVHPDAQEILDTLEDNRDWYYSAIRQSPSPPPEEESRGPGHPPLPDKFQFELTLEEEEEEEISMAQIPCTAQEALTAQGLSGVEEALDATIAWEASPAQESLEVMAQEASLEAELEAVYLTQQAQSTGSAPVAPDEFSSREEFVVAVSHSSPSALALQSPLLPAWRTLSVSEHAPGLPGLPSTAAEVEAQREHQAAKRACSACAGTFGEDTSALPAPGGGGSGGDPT
T4 sequence (Q08499 1-673 isoform Q08499-2): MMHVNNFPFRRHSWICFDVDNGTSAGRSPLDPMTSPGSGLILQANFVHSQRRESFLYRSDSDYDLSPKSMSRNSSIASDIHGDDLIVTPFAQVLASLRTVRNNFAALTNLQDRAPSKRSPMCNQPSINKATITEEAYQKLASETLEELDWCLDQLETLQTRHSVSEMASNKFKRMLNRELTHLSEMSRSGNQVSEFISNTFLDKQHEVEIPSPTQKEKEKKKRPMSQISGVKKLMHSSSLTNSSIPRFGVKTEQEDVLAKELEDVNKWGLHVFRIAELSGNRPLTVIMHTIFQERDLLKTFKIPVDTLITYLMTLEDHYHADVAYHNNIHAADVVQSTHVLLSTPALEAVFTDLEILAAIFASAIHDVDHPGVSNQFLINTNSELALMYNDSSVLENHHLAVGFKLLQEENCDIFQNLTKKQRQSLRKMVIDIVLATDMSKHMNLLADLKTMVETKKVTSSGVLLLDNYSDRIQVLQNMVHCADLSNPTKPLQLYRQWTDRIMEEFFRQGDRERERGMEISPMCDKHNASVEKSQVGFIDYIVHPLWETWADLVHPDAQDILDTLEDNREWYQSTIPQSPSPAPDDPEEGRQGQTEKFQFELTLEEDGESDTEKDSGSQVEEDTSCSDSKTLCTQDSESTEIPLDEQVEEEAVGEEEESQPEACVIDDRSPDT
T3 sequence (Q08493 whole entry): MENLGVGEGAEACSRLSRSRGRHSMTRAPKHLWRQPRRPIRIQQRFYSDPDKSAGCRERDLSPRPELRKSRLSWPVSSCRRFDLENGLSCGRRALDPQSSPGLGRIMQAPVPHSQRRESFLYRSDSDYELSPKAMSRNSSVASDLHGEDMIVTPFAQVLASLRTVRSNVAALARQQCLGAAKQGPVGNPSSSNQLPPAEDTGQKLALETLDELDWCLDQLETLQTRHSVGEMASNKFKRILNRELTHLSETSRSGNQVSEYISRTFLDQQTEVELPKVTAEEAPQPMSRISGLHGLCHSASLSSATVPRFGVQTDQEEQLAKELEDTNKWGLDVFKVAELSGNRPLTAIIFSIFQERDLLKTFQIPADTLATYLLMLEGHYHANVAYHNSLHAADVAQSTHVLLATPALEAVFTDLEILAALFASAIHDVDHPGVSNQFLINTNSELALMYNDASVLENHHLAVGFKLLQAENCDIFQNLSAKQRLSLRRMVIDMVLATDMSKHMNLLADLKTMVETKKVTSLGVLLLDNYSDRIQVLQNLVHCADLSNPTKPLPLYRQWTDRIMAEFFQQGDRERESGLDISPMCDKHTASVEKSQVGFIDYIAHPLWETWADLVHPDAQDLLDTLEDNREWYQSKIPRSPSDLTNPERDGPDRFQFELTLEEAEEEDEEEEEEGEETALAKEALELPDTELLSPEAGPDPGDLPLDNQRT

SMILES	PDE4A1A inhibition (PDE4A)	PDE4B1 inhibition (PDE4B)	inhibition at 1 µM (PDE4C)	PDE4D3 inhibition (PDE4D)	inhibition at 1 µM (PDE4D)	melting point	further results
C=CCN(CCc1ccc(OC)c(OC)c1)S(=O)(=O)c1ccccc1 [6i (LASSBio-983), N-(3,4-dimethoxyphenethyl)-N-allylbenzenesulfonamide]	Inactive	Inactive	9.7 ± 0.8%	only a marginal activity	67.6 ± 2.6%	64 to 65 °C	–
COc1ccc(CCNS(=O)(=O)c2ccccc2)cc1OC [6f (LASSBio-965), N-(3,4-dimethoxyphenethyl)benzenesulfonamide]	Inactive	Inactive	9.7 ± 3.3%	–	19.3 ± 4%	86 to 88 °C	–
COc1ccc(CCN(C2CCCC2)S(=O)(=O)c2cc3c(cc2C)OCO3)cc1OC [6e (LASSBio-962), N-(3,4-dimethoxyphenethyl)-N-cyclopentyl-6-methylbenzo[d][1, 3]dioxole-5-sulfonamide]	Inactive	Inactive	7.6 ± 1.1%	–	23.6 ± 2.2%	–	–
COc1ccc(CCN(Cc2ccccc2)S(=O)(=O)c2cc3c(cc2C)OCO3)cc1OC [6c (LASSBio-960), N-(3,4-dimethoxyphenethyl)-N-benzyl-6-methylbenzo[d][1, 3]dioxole-5-sulfonamide]	Inactive	Inactive	2 ± 0.8%	–	21.6 ± 4.5%	119 to 121 °C	–
C=CCN(CCc1ccc(OC)c(OC)c1)S(=O)(=O)c1cc2c(cc1C)OCO2 [6d (LASSBio-961), N-(3,4-dimethoxyphenethyl)-N-allyl-6-methylbenzo[d][1, 3]dioxole-5-sulfonamide]	Inactive	Inactive	6.3 ± 4.1%	only a marginal activity	40.4 ± 4.5%	74 to 76 °C	–
COc1ccc(C2CNC(=O)C2)cc1OC1CCCC1 (stereo not shown) [1 (Rolipram), rolipram, reference compound]	–	–	–	–	–	–	airway hyper-reactivity to methacholine, airway resistance (A/J mice [1]; rolipram 10 mg/Kg oral, Fig 7A): equally effective in inhibiting; airway hyper-reactivity to methacholine, lung elastance (A/J mice [1]; rolipram 10 mg/Kg oral, Fig 7B): equally effective in inhibiting; IL-4 level in lung tissue (A/J mice [1]; [3]): reduction in the levels; IL-5 level in lung tissue (A/J mice [1]; [3]): reduction in the levels; IL-13 level in lung tissue (A/J mice [1]; [3]): reduction in the levels; eotaxin-2 level in lung tissue (A/J mice [1]; [3]): reduction in the levels; allergen-induced eosinophil accumulation in the lung tissue (eosinophil peroxidase) (A/J mice [1]; rolipram 10 mg/kg oral, at third and fourth weeks of challenge, Fig 5): impair the progress; reduction of sleep time (duration of xylazine/ketamine anesthesia) (A/J mice [2]; 3.5 μmol/Kg oral): 30%; reduction of sleep time (duration of xylazine/ketamine anesthesia) (A/J mice [2]; 11 μmol/Kg oral): 38.5%; reduction of sleep time (duration of xylazine/ketamine anesthesia) (A/J mice [2]; 36 μmol/Kg oral): 40.8%
COc1ccc(CCNS(C)(=O)=O)cc1OC [6j (LASSBio-985), N-(3,4-dimethoxyphenethyl)methanesulfonamide]	Inactive	–	16.3 ± 1%	only a marginal activity	62.9 ± 3.8%	73 to 74 °C	inhibition at 1 µM (PDE4B): 12.6 ± 2.1%
COc1ccc(CCN(C)S(=O)(=O)c2ccccc2)cc1OC [6g (LASSBio-982), N-(3,4-dimethoxyphenethyl)-N-methylbenzenesulfonamide]	Inactive	Inactive	4.1%	only a marginal activity	37.4 ± 3.9%	67 to 68 °C	–
COc1ccc(CCN(C)S(=O)(=O)c2cc3c(cc2C)OCO3)cc1OC [6b (LASSBio-959), N-(3,4-dimethoxyphenethyl)-N-6-dimethylbenzo[d][1, 3]dioxole-5-sulfonamide]	Inactive	Inactive	5.6 ± 1%	only a marginal activity	42.4 ± 3.5%	92 to 94 °C	–
COc1ccc(CCN(Cc2ccccc2)S(=O)(=O)c2ccccc2)cc1OC [6h (LASSBio-984), N-(3,4-dimethoxyphenethyl)-N-benzylbenzenesulfonamide]	Inactive	–	9.8 ± 1.7%	–	14.3 ± 5.4%	82 to 84 °C	inhibition at 1 µM (PDE4B): 5 ± 0.6%
COc1ccc(CCN(C)S(C)(=O)=O)cc1OC [6k (LASSBio-1271), N-(3,4-dimethoxyphenethyl)-N-methylmethanesulfonamide]	Inactive	Inactive	–	Inactive	–	48 to 49 °C	PDE4C inhibition (PDE4C): Inactive
Cc1cc2c(cc1S(=O)(=O)NCCc1ccccc1)OCO2 [5 (LASSBio-964), 6-methyl-N-phenethylbenzo[d][1, 3]dioxole-5-sulfonamide]	Inactive	Inactive	3.9 ± 2.9%	only a marginal activity	33.5 ± 4.5%	88 to 89 °C	–
